From patent US10770169B2, “Method of providing a treatment to a subject based on a dynamic pathway map” (THE REGENTS OF THE UNIVERSITY OF CALIFORNIA, priority 2010, dated 2020)
Where two headings read alike, the source gives them in different places.

Experiments:
[1] = test system: panel of 55 breast cancer cell lines; assay: Cell growth inhibition assay (Cell Titer Glo, 72 h, 9 doses; GI50, TGI, LC50); format: cell-based, human; settings: Homo sapiens, read-out: GI50 (converted)
[2] = test system: luminal, basal, claudin-low and ERBB2AMP breast cancer cell lines; assay: Associations of clinically relevant subtypes and response (non-parametric ANOVA or t-test on GI50 ranks); format: cell-based, human; settings: Table 6; most sensitive subtype, FDR p<0.20
Procedure, shortened: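 Significance was set at FDR p<0.20 after combining p-values across three test sets. Subtype–response associations came from rank-based non-parametric ANOVA or t-tests on GI50. For three-class comparisons, post-hoc tests of each group against the rest identified the most sensitive group, with FDR correction.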

Compound: Cc1[nH]c2ccccc2c1CCNCc1ccc(/C=C/C(=O)NO)cc1 [LBH589]
- GI50 ([1]; 600MPE cell line, censored GI50 values): 186 nM
- GI50 ([1]; AU565, AU565 cell line, censored GI50 values): 105 nM
- GI50 ([1]; AU565, cell line AU565): 105 nM
- GI50 ([1]; BT-20, BT20 cell line, censored GI50 values): 389 nM
- GI50 ([1]; BT-20, cell line BT20): 389 nM
- GI50 ([1]; BT-474, BT474 cell line, censored GI50 values): 34.7 nM
- GI50 ([1]; BT-474, cell line BT474): 34.7 nM
- GI50 ([1]; BT-483, BT483 cell line, censored GI50 values): 72.4 nM
- GI50 ([1]; BT-483, cell line BT483): 72.4 nM
- GI50 ([1]; CAMA-1, CAMA1 cell line, censored GI50 values): 61.7 nM
- GI50 ([1]; CAMA-1, cell line CAMA1): 61.7 nM
- GI50 ([1]; HCC38, HCC38 cell line, censored GI50 values): 35.5 nM
- GI50 ([1]; HCC38, cell line HCC38): 35.5 nM
- GI50 ([1]; HCC70, HCC70 cell line, censored GI50 values): 77.6 nM
- GI50 ([1]; HCC70, cell line HCC70): 77.6 nM
- GI50 ([1]; HCC1143, HCC1143 cell line, censored GI50 values): 83.2 nM
- GI50 ([1]; HCC1143, cell line HCC1143): 83.2 nM
- GI50 ([1]; HCC1187, HCC1187 cell line, censored GI50 values): 174 nM
- GI50 ([1]; HCC1187, cell line HCC1187): 174 nM
- GI50 ([1]; HCC1419, HCC1419 cell line, censored GI50 values): 58.9 nM
- GI50 ([1]; HCC1419, cell line HCC1419): 58.9 nM
- GI50 ([1]; HCC1428, HCC1428 cell line, censored GI50 values): 135 nM
- GI50 ([1]; HCC1428, cell line HCC1428): 135 nM
- GI50 ([1]; HCC1500, HCC1500 cell line, censored GI50 values): 162 nM
- GI50 ([1]; HCC1500, cell line HCC1500): 162 nM
- GI50 ([1]; HCC1806, HCC1806 cell line, censored GI50 values): 151 nM
- GI50 ([1]; HCC1806, cell line HCC1806): 151 nM
- GI50 ([1]; HCC1937, HCC1937 cell line, censored GI50 values): 191 nM
- GI50 ([1]; HCC1937, cell line HCC1937): 191 nM
- GI50 ([1]; HCC1954, HCC1954 cell line, censored GI50 values): 372 nM
- GI50 ([1]; HCC1954, cell line HCC1954): 372 nM
- GI50 ([1]; HCC2185 cell line, censored GI50 values): 69.2 nM
- GI50 ([1]; HCC3153 cell line, censored GI50 values): 295 nM
- GI50 ([1]; MCF7, MCF7 cell line, censored GI50 values): 79.4 nM
- GI50 ([1]; MCF7, cell line MCF7): 79.4 nM
- GI50 ([1]; MDA-MB-134-VI, MDAMB134VI cell line, censored GI50 values): 66.1 nM
- GI50 ([1]; MDA-MB-175-VII, MDAMB175VII cell line, censored GI50 values): 389 nM
- GI50 ([1]; MDA-MB-361, MDAMB361 cell line, censored GI50 values): 50.1 nM
- GI50 ([1]; MDA-MB-361, cell line MDAMB361): 50.1 nM
- GI50 ([1]; MDA-MB-415, MDAMB415 cell line, censored GI50 values): 39.8 nM
- GI50 ([1]; MDA-MB-415, cell line MDAMB415): 39.8 nM
- GI50 ([1]; MDA-MB-436, MDAMB436 cell line, censored GI50 values): 251 nM
- GI50 ([1]; MDA-MB-436, cell line MDAMB436): 251 nM
- GI50 ([1]; MDA-MB-453, MDAMB453 cell line, censored GI50 values): 49 nM
- GI50 ([1]; MDA-MB-453, cell line MDAMB453): 49 nM
- GI50 ([1]; MDA-MB-468, MDAMB468 cell line, censored GI50 values): 234 nM
- GI50 ([1]; MDA-MB-468, cell line MDAMB468): 234 nM
- GI50 ([1]; SK-BR-3, SKBR3 cell line, censored GI50 values): 55 nM
- GI50 ([1]; SK-BR-3, cell line SKBR3): 55 nM
- GI50 ([1]; SUM52PE, SUM52PE cell line, censored GI50 values): 170 nM
- GI50 ([1]; SUM52PE, cell line SUM52PE): 170 nM
- GI50 ([1]; SUM149PT, SUM149PT cell line, censored GI50 values): 316 nM
- GI50 ([1]; SUM149PT, cell line SUM149PT): 316 nM
- GI50 ([1]; SUM185PE, SUM185PE cell line, censored GI50 values): 77.6 nM
- GI50 ([1]; SUM185PE, cell line SUM185PE): 77.6 nM
- GI50 ([1]; SUM1315MO2, SUM1315MO2 cell line, censored GI50 values): 251 nM
- GI50 ([1]; SUM-159-PT, SUM159PT cell line, censored GI50 values): 132 nM
- GI50 ([1]; SUM-159-PT, cell line SUM159PT): 132 nM
- GI50 ([1]; T47D, T47D cell line, censored GI50 values): 151 nM
- GI50 ([1]; T47D, cell line T47D): 151 nM
- GI50 ([1]; UACC-812, UACC812 cell line, censored GI50 values): 129 nM
- GI50 ([1]; UACC-812, cell line UACC812): 129 nM
- GI50 ([1]; ZR-75-1, ZR751 cell line, censored GI50 values): 195 nM
- GI50 ([1]; ZR-75-1, cell line ZR751): 195 nM
- GI50 ([1]; ZR-75B, ZR75B cell line, censored GI50 values): 83.2 nM
- GI50 ([1]; ZR-75B, cell line ZR75B): 83.2 nM
- GI50 ([1]; cell line 600MPE): 186 nM
- GI50 ([1]; cell line HCC2185): 69.2 nM
- GI50 ([1]; cell line HCC3153): 295 nM
- GI50 ([1]; cell line MDAMB134V): 66.1 nM
- GI50 ([1]; cell line MDAMB175V): 389 nM
- GI50 ([1]; cell line SUM1315MO): 251 nM
- Subtype specificity [2]: Luminal
